{"source": "ChEMBL document CHEMBL1135331", "about": "“Synthesis and characterization of a new RXR agonist based on the 6-tert-butyl-1,1-dimethylindanyl structure” (Bioorg Med Chem Lett, 2002)", "target": "T1, Retinoic acid receptor RXR-alpha (Homo sapiens, UniProt P19793)", "T1 sequence (P19793 whole entry)": "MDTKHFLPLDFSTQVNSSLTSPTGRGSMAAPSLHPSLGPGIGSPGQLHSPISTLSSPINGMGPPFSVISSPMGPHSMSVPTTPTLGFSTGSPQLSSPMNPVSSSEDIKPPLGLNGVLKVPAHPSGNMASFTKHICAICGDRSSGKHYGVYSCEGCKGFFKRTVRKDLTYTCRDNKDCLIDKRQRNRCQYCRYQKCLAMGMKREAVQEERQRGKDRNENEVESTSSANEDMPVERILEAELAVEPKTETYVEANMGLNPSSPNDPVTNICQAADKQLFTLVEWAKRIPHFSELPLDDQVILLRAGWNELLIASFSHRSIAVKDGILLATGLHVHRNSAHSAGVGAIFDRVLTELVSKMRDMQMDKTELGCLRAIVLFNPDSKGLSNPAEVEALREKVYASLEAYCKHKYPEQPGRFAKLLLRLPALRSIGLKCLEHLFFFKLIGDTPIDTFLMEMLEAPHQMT", "assay": "Dissociation constant for binding to Retinoic acid receptor RXR-alpha"}
{"molecule": "C=C(/C=C/C=C/C(=O)O)c1cc(C(C)(C)C)cc2c1CCC2(C)C", "values": [{"measurement": "Kd", "value": 220, "unit": "nM"}]}
